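Assay format: 96-well plates, 48-hour exposure. GI50 is the concentration that inhibits growth by half. TGI: concentration producing complete growth inhibition.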
Key:
Test in all cases: DTP human tumour cell line panel, 48 h
M14 melanoma = system: M14 melanoma
IGROV1 ovarian = system: IGROV1 ovarian
SK-MEL-2 melanoma = system: SK-MEL-2 melanoma
DLD-1 colon = system: DLD-1 colon
DMS 273 small cell lung = system: DMS 273 small cell lung
SK-MEL-28 melanoma = system: SK-MEL-28 melanoma
RPMI-8226 leukemia = system: RPMI-8226 leukemia
OVCAR-4 ovarian = system: OVCAR-4 ovarian
HOP-18 NSCLC = system: HOP-18 NSCLC
BT-549 breast = system: BT-549 breast
XF 498 CNS = system: XF 498 CNS

Row | SMILES | TGI (M14 melanoma) [µM] | TGI (IGROV1 ovarian) [µM] | TGI (SK-MEL-2 melanoma) [µM] | TGI (DLD-1 colon) [µM] | TGI (DMS 273 small cell lung) [µM] | TGI (SK-MEL-28 melanoma) [µM] | TGI (RPMI-8226 leukemia) [µM] | TGI (OVCAR-4 ovarian) [µM] | TGI (HOP-18 NSCLC) [µM] | GI50 (M14 melanoma) [µM] | GI50 (IGROV1 ovarian) [µM] | GI50 (SK-MEL-2 melanoma) [µM] | GI50 (SK-MEL-28 melanoma) [µM] | GI50 (RPMI-8226 leukemia) [µM] | GI50 (OVCAR-4 ovarian) [µM] | GI50 (BT-549 breast) [µM] | TGI (BT-549 breast) [µM] | TGI (XF 498 CNS) [µM]
1 | CN(C)CCC(/C=C/c1ccccc1)=N\Nc1c(F)c(F)c(F)c(F)c1F | > 100 | > 100 | > 100 | > 100 | > 100 | > 100 | > 100 | > 100 | > 100 | – | – | – | – | – | – | – | – | –
2 | Clc1cc(Cl)cc(Nc2ccc3c(OCCCN4CCOCC4)cccc3n2)c1 | 4 | 17.6 | 9.51 | – | – | 3.3 | 8.33 | 22.2 | – | 1.86 | 3.9 | 3.45 | 1.65 | 2.8 | 10.3 | 6.93 | 20 | –
3 | Nc1c([N+](=O)[O-])ncn1C1OC(CO)C(O)C1O (stereo not drawn) | > 100 | > 100 | > 100 | – | – | > 100 | > 100 | > 100 | – | > 100 | > 100 | > 100 | > 100 | > 100 | > 100 | > 100 | > 100 | –
4 | COc1ccc(C2=NOC3=c4ccccc4=CSC3=C2c2ccccc2)cc1 | > 100 | > 100 | > 100 | – | – | > 100 | > 100 | > 100 | – | 26.3 | 45.8 | 75.3 | 37.7 | 25.3 | 49.7 | 24 | 77 | –
5 | O=C(Cn1ccnc1[N+](=O)[O-])NCc1ccc(F)cc1 | > 100 | > 100 | > 100 | – | > 100 | > 100 | > 100 | > 100 | > 100 | – | – | – | – | – | – | – | – | > 100
6 | O=C(N[C@H]1CC2(C=C(I)C(=O)C(I)=C2)OC1=O)OCc1ccccc1 | 31.2 | – | – | 32.8 | – | 33.5 | > 100 | 33.5 | – | – | – | – | – | – | – | – | – | 26.8
7 | COC(=O)C1C(=O)NC2(C)CC1c1ccccc1O2 (stereo not drawn) | > 10 | > 100 | > 100 | > 100 | > 100 | > 100 | > 100 | > 100 | – | – | – | – | – | – | – | – | – | > 100
8 | CC(C)(C)OC(=O)CC(S(=O)(=O)c1ccccc1)S(=O)(=O)c1ccccc1 | 22.7 | 38.5 | 36.2 | – | – | 25.6 | 19.7 | 4.58 | – | 10.3 | 18.5 | 17 | 12.9 | 3.49 | 1.96 | 12.4 | 25.2 | –
9 | COC(=O)c1sc(=S)c2sc(C(=O)OC)c(C(=O)OC)c2c1C(=O)OC | > 100 | > 100 | > 100 | – | – | > 100 | 48.8 | > 100 | – | 32.5 | 37.1 | 38.7 | 71.8 | 22 | 82.2 | 46.8 | > 100 | –

Source: PubChem BioAssay (NCI)
